In the NIST ThermoML archive (doi:10.1016/j.tca.2017.09.002):

Assay: excess molar enthalpy (molar enthalpy of mixing); xn = mol fraction of the nth substance listed
Conditions: 1273 K, 105 kPa, Liquid, Calvet calorimetry

[Ni] [nickel] + [Bi]
Conditions | excess molar enthalpy [kcal/mol]
x1 = 0.0552 | -0.0846
x1 = 0.1056 | -0.165
x1 = 0.1516 | -0.227
x1 = 0.1935 | -0.272
x1 = 0.2321 | -0.301
x1 = 0.2677 | -0.321
x1 = 0.3011 | -0.329
x1 = 0.3319 | -0.325
